System: Helminthosporium teres
Assay: preventive fungicidal activity on Helminthosporium teres (barley leaves)
Type: in vivo
Conditions: barley leaves cv. Arna, 12 days, scale 100 (healthy plant) to 0 (completely infected plant)
Protocol: Determination of the preventive fungicidal activity on Helminthosporium teres. Barley leaves cv. Arna, cultivated in a vase in a conditioned environment, were treated by spraying both sides with the products being tested (compounds 1 and 2) in a 20% hydroacetonic solution of acetone (vol./vol.). After remaining 2 days in the conditioned environment at 20° C. and 70% R.H., the plants were sprayed on both sides of the leaves with an aqueous suspension of Helminthosporium teres (250.000 conidii per cc.). After 24 hours in a humidity saturated atmosphere, at 21° C., the plants were kept in a conditioned environment for the incubation of the fungus. At the end of this period (12 days), the gravity of infection was estimated by observation, with a scale of indexes ranging from 100 (healthy plant) to 0 (completely infected plant).

SMILES | % Control Helminthosporium (dosage 125 ppm) | % Control Helminthosporium (dosage 500 ppm)
CC(Cc1cccc(C(=O)c2ccccc2)c1)CN1C[C@@H](C)O[C@@H](C)C1 (stereo partly shown) [Compound 1, 4-[3-(3-benzoylphenyl)-2-methylpropyl]-2,6-dimethylmorpholine] | 100% | 100%
CC(Cc1cccc(C(=O)c2ccc(Cl)cc2)c1)CN1C[C@@H](C)O[C@@H](C)C1 (stereo partly shown) [Compound 2, 4-[3-(3-(4-chlorobenzoyl)phenyl)-2-methylpropyl]-2,6-dimethylmorpholine] | 100% | 100%
